Legend:
Rate of solubility = format: physicochemical; conditions: compared with the free base and other salts tested
Hygroscopicity = format: physicochemical
[1] = test system: human colon cancer cell line HCT116; experiment: Anti-proliferative activity (Alamar Blue assay); format: cell-based; conditions: HCT-116
Procedure: The anti-proliferative activities of compounds of the invention can be determined by measuring the ability of the compounds to inhibition of cell growth in a number of cell lines such as the human colon cancer cell line HCT116. Inhibition of cell growth is measured using the Alamar Blue assay (Nociari, M. M, Shalev, A., Benias, P., Russo, C. Journal of Immunological Methods 1998, 213, 157-167). The method is based on the ability of viable cells to reduce resazurin to its fluorescent product resorufin. For each proliferation assay cells are plated onto 96 well plates and allowed to recover for 16 hours prior to the addition of inhibitor compounds for a further 72 hours. At the end of the incubation period 10% (v/v) Alamar Blue is added and incubated for a further 6 hours prior to determination of fluorescent product at […]. In the case of the non-proliferating cell assay cells are maintained at confluence for 96 hour prior to the addition of inhibitor compounds for a further 72 hours. The number of viable cells is determined by Alamar Blue assay as before. Cell lines can be obtained from the ECACC (European Collection of cell Cultures).

[2] = target: T1, human Hsp90α N-terminal domain (Homo sapiens, UniProt P07900); experiment: Isothermal titration calorimetry (ITC); format: binding
T1 construct: purification of the Human Hsp90α N-terminal domain were performed according to published methods; made in house
Procedure: The ability of the compounds of the invention to bind to human Hsp90 proteins was determined using isothermal titration calorimetry. Isothermal titration calorimetry (ITC) experiments were performed with a VP-ITC titration calorimeter (Microcal Inc., Northampton, Mass., USA). Cloning, expression, and purification of the Human Hsp90α N-terminal domain were performed according to published methods (Jez, J. M. et al, Chem. […] All solutions were filtered and degassed prior to a titration being carried out. The enthalpy change resulting from each injection of ligand was obtained through integration of the calorimetric signal. Data were analysed using Origin 7.0 (Microcal Software Inc., Northampton, Mass.). Heats of dilution were estimated using the final injections of each individual titration and subtracted before data fitting. […] For weakly binding compounds a low c-value ITC method was used (Turnbull […]. Am. Chem. Soc. 2003 Dec. 3; 125(48):14859-66) in which the protein was present at 10-20 μM in the calorimetric cell and the compound concentration was 1-20 mM in the injection syringe. In this type of experiment the stoichiometry parameter (N) was locked at 1 for data fitting. […] In rare cases where compound solubility was limiting, the compound solution was placed in the calorimetric cell and titrated with protein from the injection syringe, maintaining a c-value between 5 and 1000. […]

hERG = hERG (Homo sapiens, UniProt Q12809); experiment: hERG activity
Chain of hERG (Q12809 whole entry): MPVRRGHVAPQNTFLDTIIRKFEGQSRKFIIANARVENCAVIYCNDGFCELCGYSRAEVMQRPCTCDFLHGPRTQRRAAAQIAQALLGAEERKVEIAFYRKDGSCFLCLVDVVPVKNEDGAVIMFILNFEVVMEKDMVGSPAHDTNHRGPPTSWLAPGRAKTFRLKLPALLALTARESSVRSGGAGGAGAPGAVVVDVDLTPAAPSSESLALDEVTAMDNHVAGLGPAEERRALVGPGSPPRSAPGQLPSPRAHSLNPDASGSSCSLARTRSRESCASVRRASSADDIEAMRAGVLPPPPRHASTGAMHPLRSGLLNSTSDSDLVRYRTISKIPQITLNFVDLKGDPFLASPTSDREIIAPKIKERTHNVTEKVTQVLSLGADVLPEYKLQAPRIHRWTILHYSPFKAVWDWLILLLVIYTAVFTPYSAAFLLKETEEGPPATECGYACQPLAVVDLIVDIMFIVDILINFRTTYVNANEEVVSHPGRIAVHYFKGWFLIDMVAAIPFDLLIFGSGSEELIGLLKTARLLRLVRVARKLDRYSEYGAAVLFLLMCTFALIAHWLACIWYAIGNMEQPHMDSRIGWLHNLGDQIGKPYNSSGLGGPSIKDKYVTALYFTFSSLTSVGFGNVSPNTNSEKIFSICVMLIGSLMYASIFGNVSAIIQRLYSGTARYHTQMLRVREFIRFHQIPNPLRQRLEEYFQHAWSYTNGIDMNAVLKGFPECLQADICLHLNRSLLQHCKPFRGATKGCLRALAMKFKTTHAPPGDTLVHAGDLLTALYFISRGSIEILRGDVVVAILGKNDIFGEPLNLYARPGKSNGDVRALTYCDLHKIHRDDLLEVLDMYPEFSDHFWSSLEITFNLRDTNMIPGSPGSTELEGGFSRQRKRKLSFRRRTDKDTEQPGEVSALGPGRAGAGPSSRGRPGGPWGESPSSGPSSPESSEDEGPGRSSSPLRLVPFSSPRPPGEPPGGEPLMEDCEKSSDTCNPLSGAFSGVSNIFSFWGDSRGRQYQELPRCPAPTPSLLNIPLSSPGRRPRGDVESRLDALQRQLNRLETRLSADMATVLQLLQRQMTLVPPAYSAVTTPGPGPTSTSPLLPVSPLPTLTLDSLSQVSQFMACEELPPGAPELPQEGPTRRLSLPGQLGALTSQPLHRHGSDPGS

[3] = Solid-state stability of crystalline forms (XRPD); format: physicochemical; conditions: for stability in air: XRPD
Description: Samples for X-ray powder diffraction (XRPD) data collection were gently ground by marble mortar and loaded into a crystallographic capillary (from Hampton Research, Quartz or Glass Type 10, 0.4 or 0.7 mm diameter). Diffraction patterns were collected at room temperature using CuKα radiation (λ=1.5418 Å) from a Rigaku rotating anode RU3HR, Osmic blue confocal optics, ¼ c goniometer and a Rigaku HTC image plate detector. 2D Images were collected while spinning φ axis with a detector to crystal distance of 250 mm. Data collection was controlled by CrystalClear software and 2D images were converted to 1D plot (2θ vs. Intensity) by Datasqueeze (intensity averaged over the azimuthal angle 0≦χ≦360° for […] 3-30° in 0.02° steps). In house program AstexXRPD was used for manipulation and visualisation of 1D XRPD patterns.

CC(C)c1cc(C(=O)N2Cc3ccc(CN4CCN(C)CC4)cc3C2)c(O)cc1O.C[C@H](O)C(=O)O [(2,4-dihydroxy-5-isopropyl-phenyl)-[5-(4-methyl-piperazin-1-ylmethyl)-1,3-dihydro-isoindol-2-yl]-methanone L-lactate salt]
rate of solubility (Rate of solubility): better rate of solubility than the free base and other salts tested
hygroscopicity (Hygroscopicity): non-hygroscopic

CC(C)c1cc(C(=O)N2Cc3ccc(CN4CCN(C)CC4)cc3C2)c(O)cc1O [Compound (1), (2,4-dihydroxy-5-isopropyl-phenyl)-[5-(4-methyl-piperazin-1-ylmethyl)-1,3-dihydro-isoindol-2-yl]-methanone]
IC50 [1]: < 100 nM
Kd [2]: < 100 nM
hERG activity (hERG): low hERG activity
mean IC50 value against hERG relative to the IC50 values of the compound in cellular proliferation assays (hERG): greater than 30 times
IC50 (hERG; read-out: mean IC50 value against hERG): > 15000 nM

CC(C)c1cc(C(=O)N2Cc3ccc(CN4CCN(C)CC4)cc3C2)c(O)cc1O.Cl [Form FH1, (2,4-dihydroxy-5-isopropyl-phenyl)-[5-(4-methyl-piperazin-1-ylmethyl)-1,3-dihydro-isoindol-2-yl]-methanone hydrochloride salt]
stability in air ([3]; listed as FH1, hydrochloride salt): unstable in air
hygroscopicity (Hygroscopicity): very hygroscopic and dissolves in air moisture

CC(C)c1cc(C(=O)N2Cc3ccc(CN4CCN(C)CC4)cc3C2)c(O)cc1O.O=S(=O)(O)O [Form FS6, (2,4-dihydroxy-5-isopropyl-phenyl)-[5-(4-methyl-piperazin-1-ylmethyl)-1,3-dihydro-isoindol-2-yl]-methanone sulphate salt]
stability at 40° C. and 75% RH ([3]; 40° C., 75% RH, listed as FS6, sulphate salt): transforms into form FS3
stability in air ([3]; listed as FS6, sulphate salt): stable in air
stability of the crystalline form (stable / unstable form) ([3]; listed as FS6, sulphate salt): stable forms

Source: US9428439B2, “Hydrobenzamide derivatives as inhibitors of Hsp90” (priority 2006, dated 2016)
